This passage reports Ki results from ChEMBL document CHEMBL4017450, “Synthesis and carbonic anhydrase inhibition of a series of SLC-0111 analogs” (Bioorg Med Chem, 2017).

One test addresses Carbonic anhydrase 9 (Homo sapiens, UniProt Q16790).
A further test deals with Carbonic anhydrase 2 (Homo sapiens, UniProt P00918). The test is described as follows: Inhibition of human recombinant carbonic anhydrase 2 preincubated for 15 mins prior to testing measured for 10 to 100 secs by phenol red-based stopped-flow CO2 hydration assay.
The target in another test is Carbonic anhydrase 12 (Homo sapiens, UniProt O43570). As to the kind of experiment: Inhibition of human recombinant carbonic anhydrase 12 preincubated for 15 mins prior to testing measured for 10 to 100 secs by phenol red-based stopped-flow CO2 hydration assay.
Carbonic anhydrase 12, sequence (O43570 whole entry): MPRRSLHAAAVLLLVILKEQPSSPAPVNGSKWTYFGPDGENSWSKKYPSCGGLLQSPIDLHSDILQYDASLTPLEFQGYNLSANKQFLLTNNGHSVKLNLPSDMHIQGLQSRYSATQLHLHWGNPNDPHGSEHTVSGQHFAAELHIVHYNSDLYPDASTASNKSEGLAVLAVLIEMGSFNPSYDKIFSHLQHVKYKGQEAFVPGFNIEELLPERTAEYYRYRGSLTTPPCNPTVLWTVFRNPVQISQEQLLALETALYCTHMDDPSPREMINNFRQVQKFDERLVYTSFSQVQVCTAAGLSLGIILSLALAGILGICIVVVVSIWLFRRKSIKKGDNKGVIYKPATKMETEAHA

Description for Carbonic anhydrase 9: Inhibition of human recombinant carbonic anhydrase 9 preincubated for 15 mins prior to testing measured for 10 to 100 secs by phenol red-based stopped-flow CO2 hydration assay

As usually defined, the Ki is the dissociation constant of the complex between target and ligand, obtained from inhibition or displacement. In turn, `NS(=O)(=O)c1ccc(NC(=O)Nc2ccccc2F)cc1` showed a Ki at Carbonic anhydrase 9 of 7.7 nM.

On to `NS(=O)(=O)c1ccc(NC(=O)Nc2cccc(Cl)c2)cc1`, for which the Ki at Carbonic anhydrase 9 worked out at 8.4 nM; at Carbonic anhydrase 2, 10 nM; on Carbonic anhydrase 12, 8.5 nM.

Consider `NS(=O)(=O)c1ccc(NC(=O)Nc2cc(C(F)(F)F)ccc2F)cc1`, for which the affinity on Carbonic anhydrase 9 corresponds to a Ki of 7.4 nM.

For `CC(=O)c1ccc(NC(=O)Nc2cccc(S(N)(=O)=O)c2)cc1`, the Ki on Carbonic anhydrase 9 was determined as 178 nM.

In turn, `NS(=O)(=O)c1ccc(NC(=O)Nc2ccc(Cl)cc2F)cc1` gave a Ki on Carbonic anhydrase 9 of 5.1 nM.

`NS(=O)(=O)c1ccc(NC(=O)Nc2ccc(F)c(F)c2F)cc1` came in with a Ki at Carbonic anhydrase 9 of 9.6 nM.

At Carbonic anhydrase 9, `NS(=O)(=O)c1cccc(NC(=O)Nc2ccc(I)cc2)c1` had a Ki of 116 nM.

For the compound `CC(C)c1ccccc1NC(=O)Nc1cccc(S(N)(=O)=O)c1`, the affinity at Carbonic anhydrase 9, expressed as Ki, was 349 nM.

On to `NS(=O)(=O)c1ccc(NC(=O)Nc2cc(F)c(F)cc2F)cc1`, for which, on Carbonic anhydrase 9, the affinity corresponds to a Ki of 7.6 nM.

As to `NS(=O)(=O)c1cccc(NC(=O)Nc2cccc([N+](=O)[O-])c2)c1`, the Ki on Carbonic anhydrase 9 was 154 nM.

On Carbonic anhydrase 9, `NS(=O)(=O)c1ccc(NC(=O)Nc2ccc(F)cc2F)cc1` showed a Ki of 3.7 nM.

Regarding `NS(=O)(=O)c1ccc(NC(=O)Nc2cc([N+](=O)[O-])ccc2Cl)cc1`, the Ki at Carbonic anhydrase 9 is 8.2 nM.

`NS(=O)(=O)c1ccc(NC(=O)Nc2cc(Cl)ccc2Cl)cc1` returned a Ki on Carbonic anhydrase 9 of 8.9 nM.

Consider `NS(=O)(=O)c1cccc(NC(=O)Nc2ccc(F)cc2)c1`, for which the affinity on Carbonic anhydrase 9 corresponds to a Ki of 219 nM.

Take `NS(=O)(=O)c1cccc(NC(=O)Nc2c(F)c(F)c(F)c(F)c2F)c1`: the Ki on Carbonic anhydrase 9 came out at 162 nM.
